Assay results taken from PubChem BioAssay AID1745844 (Carcinogenic Potency Database (CPDB), 2022).
Activity calls are given as the source filed them. The rule behind the calls is not given here.

System: rodent lifetime carcinogenesis bioassay, tumor incidence TD50
Experiment: chronic cancer bioassays in animals – CPDB, compiled studies (AID 1745844)

Work on `Cc1ccc(Cl)cc1N` yielded a TD50 (mouse, strain B6C3F1, females, in feed, site: all sites + liver, lesion: hemangiosarcoma + hepatocellular adenoma + hepatocellular carcinoma, dosed 78 weeks, study length 91 weeks) of 143 mg/kg/day, a TD50 (mouse, strain B6C3F1, females, in feed, site: all sites, lesion: hemangiosarcoma, dosed 78 weeks, study length 91 weeks) of 373 mg/kg/day and a TD50 (mouse, strain B6C3F1, females, in feed, site: any site (literature study), lesion: several types, types named in the paper, dosed 78 weeks, study length 91 weeks) of 164 mg/kg/day. For the same compound, the TD50 (mouse, strain B6C3F1, females, in feed, site: liver, lesion: hepatocellular adenoma + hepatocellular carcinoma + neoplastic nodule, dosed 78 weeks, study length 91 weeks) was 180 mg/kg/day, the TD50 (mouse, strain B6C3F1, females, in feed, site: liver, lesion: hepatocellular adenoma + hepatocellular carcinoma, dosed 78 weeks, study length 91 weeks) was 180 mg/kg/day and the TD50 (mouse, strain B6C3F1, females, in feed, site: liver, lesion: hepatocellular carcinoma, dosed 78 weeks, study length 91 weeks) was 217 mg/kg/day. The TD50 (mouse, strain B6C3F1, females, in feed, site: lung, lesion: alveolar/bronchiolar adenoma + alveolar/bronchiolar carcinoma, dosed 78 weeks, study length 91 weeks) was 7480 mg/kg/day, the TD50 (mouse, strain B6C3F1, males, in feed, site: all sites + liver, lesion: hemangiosarcoma + hepatocellular adenoma + hepatocellular carcinoma, dosed 78 weeks, study length 91 weeks) was 134 mg/kg/day and the TD50 (mouse, strain B6C3F1, males, in feed, site: all sites, lesion: hemangiosarcoma, dosed 78 weeks, study length 91 weeks) was 213 mg/kg/day. It also gave a TD50 (mouse, strain B6C3F1, males, in feed, site: any site (literature study), lesion: several types, types named in the paper, dosed 78 weeks, study length 91 weeks) of 132 mg/kg/day, a TD50 (mouse, strain B6C3F1, males, in feed, site: liver, lesion: hepatocellular adenoma + hepatocellular carcinoma + neoplastic nodule, dosed 78 weeks, study length 91 weeks) of 249 mg/kg/day and a TD50 (mouse, strain B6C3F1, males, in feed, site: liver, lesion: hepatocellular adenoma + hepatocellular carcinoma, dosed 78 weeks, study length 91 weeks) of 249 mg/kg/day. For the same compound, the TD50 (mouse, strain B6C3F1, males, in feed, site: liver, lesion: hepatocellular carcinoma, dosed 78 weeks, study length 91 weeks) was 271 mg/kg/day, the carcinogen call (rat, strain Fischer 344, females, in feed, site: any site (literature study), lesion: several types, types named in the paper, dosed 78 weeks, study length 103 weeks) was “negative (inactive)” and the TD50 (rat, strain Fischer 344, males, in feed, site: adrenal gland, lesion: pheochromocytoma, dosed 78 weeks, study length 103 weeks) was 714 mg/kg/day (inactive). The TD50 (rat, strain Fischer 344, males, in feed, site: any site (literature study), lesion: several types, types named in the paper, dosed 78 weeks, study length 103 weeks) was 1020 mg/kg/day and the TD50 (rat, strain Fischer 344, males, in feed, site: liver, lesion: hepatocellular adenoma + hepatocellular carcinoma + neoplastic nodule, dosed 78 weeks, study length 103 weeks) was 3340 mg/kg/day.

With `C=Cc1cccc[n+]1[O-]` the TD50 (mouse, strain ICI, females, i.v., site: any site (literature study), lesion: benign tumor, dosed 75 weeks, study length 104 weeks) was 1690 mg/kg/day (inactive), the carcinogen call (mouse, strain ICI, females, i.v., site: any site (literature study), lesion: malignant tumor, dosed 75 weeks, study length 104 weeks) was “negative (inactive)” and the carcinogen call (mouse, strain ICI, females, i.v., site: lung, lesion: adenoma, dosed 75 weeks, study length 104 weeks) was “negative (inactive)”. The carcinogen call (rat, strain Wistar, females, i.v., site: any site (literature study), lesion: benign tumor, dosed 75 weeks, study length 104 weeks) was “negative (inactive)” and the TD50 (rat, strain Wistar, females, i.v., site: any site (literature study), lesion: malignant tumor, dosed 75 weeks, study length 104 weeks) was 175 mg/kg/day (inactive).

With `Cc1cc(O)cc(C)c1N(C)C` the TD50 (mouse, strain B6AKF1, females, oral dosing, site: any site (literature study), lesion: several types, types named in the paper, dosed 76 weeks, study length 76 weeks) was 220 mg/kg/day (inactive), the carcinogen call (mouse, strain B6AKF1, females, oral dosing, site: liver, lesion: hepatoma, dosed 76 weeks, study length 76 weeks) was “negative (inactive)” and the carcinogen call (mouse, strain B6AKF1, females, oral dosing, site: lung, lesion: adenoma, dosed 76 weeks, study length 76 weeks) was “negative (inactive)”. For the same compound, the TD50 (mouse, strain B6AKF1, males, oral dosing, site: any site (literature study), lesion: several types, types named in the paper, dosed 76 weeks, study length 76 weeks) was 1190 mg/kg/day (inactive), the TD50 (mouse, strain B6AKF1, males, oral dosing, site: liver, lesion: hepatoma, dosed 76 weeks, study length 76 weeks) was 207 mg/kg/day (inactive) and the carcinogen call (mouse, strain B6AKF1, males, oral dosing, site: lung, lesion: adenoma, dosed 76 weeks, study length 76 weeks) was “negative (inactive)”. The TD50 (mouse, strain B6C3F1, females, oral dosing, site: any site (literature study), lesion: several types, types named in the paper, dosed 76 weeks, study length 76 weeks) was 265 mg/kg/day (inactive), the carcinogen call (mouse, strain B6C3F1, females, oral dosing, site: liver, lesion: hepatoma, dosed 76 weeks, study length 76 weeks) was “negative (inactive)” and the TD50 (mouse, strain B6C3F1, females, oral dosing, site: lung, lesion: adenoma, dosed 76 weeks, study length 76 weeks) was 265 mg/kg/day (inactive). The TD50 (mouse, strain B6C3F1, males, oral dosing, site: any site (literature study), lesion: several types, types named in the paper, dosed 76 weeks, study length 76 weeks) was 34.8 mg/kg/day (inactive), the TD50 (mouse, strain B6C3F1, males, oral dosing, site: liver, lesion: hepatoma, dosed 76 weeks, study length 76 weeks) was 247 mg/kg/day (inactive) and the TD50 (mouse, strain B6C3F1, males, oral dosing, site: lung, lesion: adenoma, dosed 76 weeks, study length 76 weeks) was 56.1 mg/kg/day (inactive).

With `CC(=O)CNCC(O)C(O)N=O` (configuration not stated) the TD50 (hamster, strain Syrian Golden, females, by gavage, site: forestomach, lesion: several types, types named in the paper, dosed 35 weeks, study length 55 weeks) was 0.754 mg/kg/day, the TD50 (hamster, strain Syrian Golden, females, by gavage, site: forestomach, lesion: squamous-cell papilloma, dosed 35 weeks, study length 55 weeks) was 0.868 mg/kg/day and the TD50 (hamster, strain Syrian Golden, females, by gavage, site: liver, lesion: hepatocellular adenoma, dosed 35 weeks, study length 55 weeks) was 9.92 mg/kg/day. For the same compound, the TD50 (hamster, strain Syrian Golden, females, by gavage, site: liver, lesion: hepatocellular carcinoma, dosed 35 weeks, study length 55 weeks) was 20.4 mg/kg/day, the TD50 (hamster, strain Syrian Golden, females, by gavage, site: liver, lesion: several types, types named in the paper, dosed 35 weeks, study length 55 weeks) was 9.92 mg/kg/day and the TD50 (hamster, strain Syrian Golden, females, by gavage, site: lung, lesion: carcinoma, dosed 35 weeks, study length 55 weeks) was 20.4 mg/kg/day. It also gave a TD50 (hamster, strain Syrian Golden, females, by gavage, site: pancreatic duct, lesion: several types, types named in the paper, dosed 35 weeks, study length 55 weeks) of 3.63 mg/kg/day, a TD50 (rat, strain Fischer 344, females, in drinking water, site: esophagus, lesion: carcinoma, dosed 31 weeks, study length 55 weeks) of 0.0637 mg/kg/day and a TD50 (rat, strain Fischer 344, females, in drinking water, site: esophagus, lesion: several types, types named in the paper, dosed 31 weeks, study length 55 weeks) of 0.0352 mg/kg/day. For the same compound, the TD50 (rat, strain Fischer 344, females, in drinking water, site: forestomach, lesion: carcinoma, dosed 31 weeks, study length 55 weeks) was 0.155 mg/kg/day, the TD50 (rat, strain Fischer 344, females, in drinking water, site: forestomach, lesion: several types, types named in the paper, dosed 31 weeks, study length 55 weeks) was 0.0482 mg/kg/day and the TD50 (rat, strain Fischer 344, females, in drinking water, site: liver, lesion: hepatocellular carcinoma, dosed 31 weeks, study length 55 weeks) was 1.3 mg/kg/day (inactive). The TD50 (rat, strain Fischer 344, females, in drinking water, site: tongue, lesion: carcinoma, dosed 31 weeks, study length 55 weeks) was 0.0964 mg/kg/day and the TD50 (rat, strain Fischer 344, females, in drinking water, site: tongue, lesion: several types, types named in the paper, dosed 31 weeks, study length 55 weeks) was 0.0555 mg/kg/day.

For `NC(=S)NNC=O`, the TD50 (rat, strain Sprague-Dawley, females, in feed, site: any site (literature study), lesion: several types, types named in the paper, dosed 46 weeks, study length 64 weeks) was 140 mg/kg/day (inactive).

Compound `CCN(N=O)C(N)=O` has a TD50 (rat, strain F344/DuCrj, females, in drinking water, site: all sites, lesion: mononuclear-cell leukemia, dosed 103 weeks, study length 111 weeks) of 0.151 mg/kg/day, a TD50 (rat, strain F344/DuCrj, females, in drinking water, site: any site (literature study), lesion: several types, types named in the paper, dosed 103 weeks, study length 111 weeks) of 0.0687 mg/kg/day and a TD50 (rat, strain F344/DuCrj, females, in drinking water, site: brain, lesion: several types, types named in the paper, dosed 103 weeks, study length 111 weeks) of 0.904 mg/kg/day. It also gave a TD50 (rat, strain F344/DuCrj, females, in drinking water, site: digestive tract, lesion: several types, types named in the paper, dosed 103 weeks, study length 111 weeks) of 2.56 mg/kg/day, a TD50 (rat, strain F344/DuCrj, females, in drinking water, site: duodenum, lesion: several types, types named in the paper, dosed 103 weeks, study length 111 weeks) of 7.68 mg/kg/day and a TD50 (rat, strain F344/DuCrj, females, in drinking water, site: mammary gland, lesion: adenocarcinoma, dosed 103 weeks, study length 111 weeks) of 2.54 mg/kg/day. For the same compound, the TD50 (rat, strain F344/DuCrj, females, in drinking water, site: thyroid follicle, lesion: papillary adenoma, dosed 103 weeks, study length 111 weeks) was 8.7 mg/kg/day, the TD50 (rat, strain F344/DuCrj, females, in drinking water, site: uterus, endometrium, lesion: sarcoma, dosed 103 weeks, study length 111 weeks) was 2.56 mg/kg/day and the TD50 (rat, strain F344/DuCrj, females, in drinking water, site: uterus, lesion: adenoma, dosed 103 weeks, study length 111 weeks) was 4.08 mg/kg/day. It also gave a TD50 (rat, strain F344/DuCrj, females, in drinking water, site: uterus, lesion: endometrial stromal polyp, dosed 103 weeks, study length 111 weeks) of 0.883 mg/kg/day, a TD50 (rat, strain F344/DuCrj, males, in drinking water, site: any site (literature study), lesion: several types, types named in the paper, dosed 99 weeks, study length 111 weeks) of 0.025 mg/kg/day and a TD50 (rat, strain F344/DuCrj, males, in drinking water, site: brain, lesion: several types, types named in the paper, dosed 99 weeks, study length 111 weeks) of 0.997 mg/kg/day. For the same compound, the TD50 (rat, strain F344/DuCrj, males, in drinking water, site: digestive tract, lesion: several types, types named in the paper, dosed 99 weeks, study length 111 weeks) was 1.15 mg/kg/day, the TD50 (rat, strain F344/DuCrj, males, in drinking water, site: duodenum, lesion: several types, types named in the paper, dosed 99 weeks, study length 111 weeks) was 31.2 mg/kg/day and the TD50 (rat, strain F344/DuCrj, males, in drinking water, site: liver, lesion: neoplastic nodule, dosed 99 weeks, study length 111 weeks) was 16.4 mg/kg/day. The TD50 (rat, strain F344/DuCrj, males, in drinking water, site: lung, lesion: adenocarcinoma, dosed 99 weeks, study length 111 weeks) was 2 mg/kg/day, the TD50 (rat, strain F344/DuCrj, males, in drinking water, site: lung, lesion: adenoma, dosed 99 weeks, study length 111 weeks) was 0.518 mg/kg/day and the TD50 (rat, strain F344/DuCrj, males, in drinking water, site: mammary gland, lesion: fibroma, dosed 99 weeks, study length 111 weeks) was 0.889 mg/kg/day. It also gave a TD50 (rat, strain F344/DuCrj, males, in drinking water, site: peripheral nervous system, lesion: several types, types named in the paper, dosed 99 weeks, study length 111 weeks) of 10.2 mg/kg/day, a TD50 (rat, strain F344/DuCrj, males, in drinking water, site: peritoneum, lesion: mesothelioma, dosed 99 weeks, study length 111 weeks) of 0.109 mg/kg/day and a TD50 (rat, strain F344/DuCrj, males, in drinking water, site: subcutaneous tissue, lesion: fibroma, dosed 99 weeks, study length 111 weeks) of 2.42 mg/kg/day. The TD50 (rat, strain F344/DuCrj, males, in drinking water, site: thyroid follicle, lesion: papillary adenocarcinoma, dosed 99 weeks, study length 111 weeks) was 8.53 mg/kg/day and the TD50 (rat, strain F344/DuCrj, males, in drinking water, site: thyroid follicle, lesion: papillary adenoma, dosed 99 weeks, study length 111 weeks) was 3.9 mg/kg/day.

With `Cl` the TD50 (rat, strain Fischer 344, males, in feed, site: adrenal medulla, lesion: pheochromocytoma, dosed 104 weeks, study length 104 weeks) was 6210 mg/kg/day (inactive), the TD50 (rat, strain Fischer 344, males, in feed, site: mammary gland, lesion: fibroadenoma, dosed 104 weeks, study length 104 weeks) was 33500 mg/kg/day (inactive) and the carcinogen call (rat, strain Sprague-Dawley, males, inhaled, site: liver, lesion: hepatocellular carcinoma, dosed 128 weeks, study length 128 weeks) was “negative (inactive)”. The carcinogen call (rat, strain Sprague-Dawley, males, inhaled, site: nasal mucosa, lesion: one or several types, types not named, dosed 128 weeks, study length 128 weeks) was “negative (inactive)” and the TD50 (rat, strain Wistar-random, females, in feed, site: urinary bladder, lesion: transitional-cell papilloma, dosed 130 weeks, study length 130 weeks) was 79500 mg/kg/day.
